In patent US20260308157A1, “Pyrrolopyrazine Compounds, Preparation Thereof and Therapeutic Uses Thereof” (Sanofi, priority 2023, published 2026):

Columns and labels:
Cellular ERK5 Activity = biological target: T1, Cellular ERK5 Activity (Homo sapiens, UniProt Q13164); assay: Inhibition of Cellular ERK5 Activity (cell-based assay, MEF2 luciferase reporter in SN12C cells); settings: renal cancer cell line SN12C, doxycycline-induced MEK5DD, 0.3-10000 nM, mean where repeated
T1 construct: MEF2-response-element luciferase reporter (pGreenFire1)
T1 sequence (Q13164 whole entry): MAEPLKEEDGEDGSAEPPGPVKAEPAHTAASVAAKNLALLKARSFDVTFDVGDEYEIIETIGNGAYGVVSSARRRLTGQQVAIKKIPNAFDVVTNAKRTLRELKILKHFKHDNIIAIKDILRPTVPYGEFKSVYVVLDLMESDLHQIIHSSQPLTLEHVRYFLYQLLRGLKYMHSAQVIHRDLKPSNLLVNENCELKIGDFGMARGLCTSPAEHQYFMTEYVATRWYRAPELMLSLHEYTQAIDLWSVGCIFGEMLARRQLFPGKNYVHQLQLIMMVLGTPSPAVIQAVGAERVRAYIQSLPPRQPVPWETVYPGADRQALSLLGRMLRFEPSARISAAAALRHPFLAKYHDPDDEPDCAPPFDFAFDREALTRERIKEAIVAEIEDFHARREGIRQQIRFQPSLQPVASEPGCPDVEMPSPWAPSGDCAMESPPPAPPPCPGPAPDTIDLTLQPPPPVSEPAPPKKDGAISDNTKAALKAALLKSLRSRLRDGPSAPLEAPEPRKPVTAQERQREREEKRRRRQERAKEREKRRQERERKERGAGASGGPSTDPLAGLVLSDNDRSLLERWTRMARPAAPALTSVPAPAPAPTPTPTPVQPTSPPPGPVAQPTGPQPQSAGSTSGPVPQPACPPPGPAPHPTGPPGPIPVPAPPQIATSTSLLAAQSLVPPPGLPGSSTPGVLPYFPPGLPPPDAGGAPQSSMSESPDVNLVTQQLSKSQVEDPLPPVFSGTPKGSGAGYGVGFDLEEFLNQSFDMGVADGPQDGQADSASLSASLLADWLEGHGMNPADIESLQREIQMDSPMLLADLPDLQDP
Method: (§1) Two assays were performed to assess the ERK5 inhibitory activity of compounds of the Examples, a cell-based assay and a cell-free biochemical assay. Where repeat measurements were taken, the value reported is a mean average.
Inhibition of Cellular ERK5 Activity
The renal cancer cell line SN12C was transduced by a lentivirus pGreenFire1 MEF2 EF1 Neo (ref TR030VA-N) from SBI using standard infection protocol. pGreenFire1 MEF2 EF1 Neo allows the expression of luciferase gene under the control of minimal promoter with MEF2 transcriptional response elements. Cells harboring the reporter construct were selected by geneticin treatment. The selected cells were then transposed by a piggyback based plasmid pCM4007 allowing the expression of constitutively activated MEK5DD under control of TREG3 promoter, a doxycycline regulated promoter. Transposed cells were selected by puromycin treatment. Upon doxycycline treatment (1 μg/ml) MEK5DD was expressed. MEK5DD activates ERK5 that phosphorylates MEF2C protein. Activated MEF2C protein can bind to its transcriptional response elements. Then the luciferase is expressed. In a 96-well plate (96F nuncleon ref137101 thermofisher), 50,000 cells were inoculated in 142.5 μl of RPMI medium containing 10% fetal calf serum, 1% glutamine, and 1 μg/ml doxycycline. After 24 hours, compounds were added in 7.5 μl culture medium (with 2% DMSO to give a final concentration of 0.1%) in order to obtain the desired concentration (0.3-10000 nM). The luciferase activity was measured using the Kit Bright Glo Luminescent Cell Assay Cat E2610 (Promega) according to the manufacturer's protocol. Luminescence was determined using 0.2 second reading/well using a Tecan SPARK. IC50 values were calculated using XLFIT5 for Microsoft Excel using method 205. The IC50 values represent the concentration of compound which inhibits the measurable luminescence signal by 50% as compared to DMSO-treated control cells.

[1] = biological target: T2, activated catalytic domain of protein ERK5 (Homo sapiens, UniProt Q13164); assay: Cell-Free Assay of ERK5 Inhibition (Time-Resolved Forster Resonance Energy Transfer); assay type: biochemical; settings: ERK5 4 nM, 1 mM ATP, 1 μM biotinylated 4EBP1 peptide, 30 min at 37° C.; TR-FRET; mean where repeated
T2 construct: purchased CarnaBiosciences #04-146
T2 sequence (Q13164 55-347 limits assumed): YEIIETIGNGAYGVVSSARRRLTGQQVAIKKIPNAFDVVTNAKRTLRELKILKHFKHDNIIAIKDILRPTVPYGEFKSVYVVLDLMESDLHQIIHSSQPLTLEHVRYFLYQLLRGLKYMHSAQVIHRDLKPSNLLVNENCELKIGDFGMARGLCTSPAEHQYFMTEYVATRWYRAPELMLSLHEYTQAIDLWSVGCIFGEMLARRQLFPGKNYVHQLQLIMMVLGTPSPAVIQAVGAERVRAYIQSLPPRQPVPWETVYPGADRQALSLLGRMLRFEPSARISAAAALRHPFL
Method: as §1
Cell-Free Assay of ERK5 Inhibition
An assay was performed to measure the capacity of each compound to inhibit ERK5 enzymatic activity. Compound potency was evaluated by Time-Resolved Forster Resonance Energy Transfer (FRET system). The activated catalytic domain of protein ERK5 (CarnaBiosciences #04-146) was mixed at 4 nM with varying concentrations of compound and incubated for 30 minutes at room temperature. A mixture of 1 mM ATP and 1 μM biotinylated synthetic peptide was added (Biosyntan GmbH). This synthetic peptide represents amino acids 30-52 of Eukaryotic translation initiation factor 4E-binding protein 1 (see, e.g., the sequence under accession No. NP_004086.1) biotinylated at the N-terminus. After 30 minutes at 37° C., the peptide phosphorylation by ERK5 was measured by addition of FRET reagents consisting of 12.5 µg/ml Streptavidin-XL665, 1 nM Anti-P-4EBP1 antibody and 300 ng/ml Anti-rabbit-K antibody. Following 90 minutes at room temperature fluorescent signals were read on the Pherastar FSX multimod detector from BMG Labtech (Exc° 340 nm, Em1 620 nm, Em2 665 nm). The IC50 values represent the concentration of compound which inhibits the measurable fluorescence signal by […] as compared to the DMSO only control.

Structure (SMILES) | IC50 (Cellular ERK5 Activity) [nM] | IC50 [1] [nM]
O=C(c1ccc(C(O)(C(F)(F)F)C(F)(F)F)cc1)N1CCC(c2c[nH]c3ncc(C4CCOCC4)nc23)CC1 [Example 42, [4-(2-tetrahydropyran-4-yl-5H-pyrrolo[2,3-b]pyrazin-7-yl)-1-piperidyl]-[4-[2,2,2-trifluoro-1-hydroxy-1-(trifluoromethyl)ethyl]phenyl]methanone] | 480 | > 30000
Nc1cc(OC(F)(F)F)ccc1C(=O)N1CCC(c2c[nH]c3ncc(OC4COC4)nc23)CC1 [Example 44, [2-amino-4-(trifluoromethoxy)phenyl]-[4-[2-(oxetan-3-yloxy)-5H-pyrrolo[2,3-b]pyrazin-7-yl]-1-piperidyl]methanone] | 272 | 639
